Our source for the binding and TO shift values is PMC10297291 (2023).

Bounds are passed on as bounds.

For assay [1], the system named is G4 (DNA, G4) AGGGTTAGGGTTAGGGTTAGGG
The assay is described as follows: thiazole orange displacement (G4-FID), fluorescence. The conditions noted are these: 10 mM K+, 90 mM Li+, 10 mM lithium cacodylate pH 7.2, 1 µM TO displaced, 0.25 µM DNA, 3 min equilibration.

Assay [2] deals with ds26 (DNA, duplex) CAATCGGATCGAATTCGATCCGATTG
The assay is described as above. The conditions noted are these: 10 mM K+, 90 mM Li+, 10 mM lithium cacodylate pH 7.2, 1 µM TO displaced, 0.25 µM DNA, 3 min equilibration.

The subject of assay [3] is G4 (DNA, G4) AGGGTTAGGGTTAGGGTTAGGG
The assay is described as follows: thiazole orange displacement (G4-FID), kinetics. The following applies: 10 mM K+, 90 mM Li+; 10 mM lithium cacodylate pH 7.2; 1 µM TO displaced, 0.25 µM DNA; resveratrol concentration not stated.

Consider `O=c1c(O)c(-c2ccc(O)c(O)c2)oc2cc(O)cc(O)c12`, for which the binding result in assay [1] (positive control) and in assay [2] (positive control) was “yes” throughout.
For the compound `O=c1cc(-c2ccccc2)oc2cc(O)cc(O)c12`, the TO shift in assay [1] (highest concentrations) and in assay [2] (highest concentrations) was under 20% each time.
As for `Oc1ccc(/C=C/c2cc(O)cc(O)c2)cc1`, in assay [3], the binding result is “no”.
